# Test results taken from US7256268B1, “Human high affinity choline transporter” (University of Florida Research Foundation, priority 2000, dated 2007).
# Tests used:
# [1] = test system: low affinity choline transporter, LACT; conditions: synaptosome preparations; cited from earlier work
# human HACT = target: T1, human HACT (Homo sapiens, UniProt Q9GZV3); assay: transporter assay for high affinity choline uptake (tritiated choline chloride) in transfected or infected cells; type: cell-based; conditions: 10 nM of Hemicholinium-3; cells expressing recombinant human HACT (FIG. 1: SF9 cells), 27° C., 30 min
# T1 construct: expressed in transfected cells; host or cells: 293, HELA and SF9 cells (pcDNA, AAV proviral and baculoviral vectors)
# T1 sequence (Q9GZV3 1-580): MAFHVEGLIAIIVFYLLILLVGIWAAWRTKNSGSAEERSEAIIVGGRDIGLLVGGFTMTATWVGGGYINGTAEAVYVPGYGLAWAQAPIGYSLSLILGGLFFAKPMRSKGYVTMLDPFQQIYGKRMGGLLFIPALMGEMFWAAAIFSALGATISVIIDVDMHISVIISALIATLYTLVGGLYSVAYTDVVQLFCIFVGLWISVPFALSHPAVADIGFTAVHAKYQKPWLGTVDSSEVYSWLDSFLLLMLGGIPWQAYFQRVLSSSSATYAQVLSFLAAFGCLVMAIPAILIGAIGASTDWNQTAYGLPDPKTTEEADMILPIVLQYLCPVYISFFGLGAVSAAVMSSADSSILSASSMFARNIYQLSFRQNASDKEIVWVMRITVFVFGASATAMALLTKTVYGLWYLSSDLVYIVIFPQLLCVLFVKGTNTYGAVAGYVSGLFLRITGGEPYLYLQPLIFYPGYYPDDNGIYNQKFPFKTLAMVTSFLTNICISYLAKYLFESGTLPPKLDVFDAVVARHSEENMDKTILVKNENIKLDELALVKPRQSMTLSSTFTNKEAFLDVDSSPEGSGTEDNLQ
# Description: A transporter assay for high affinity choline uptake was carried out using 293, HELA, and SF9 cells that had been transfected or infected with expression vectors (several eukaryotic expression vectors including pcDNA, AAV proviral vector, and Baculoviral vectors were used) either with or without a cDNA encoding human HACT. Briefly, 2×10^5 cells were incubated with tritiated choline chloride and various amounts of Hemicholinium-3 in 500 microliter media (20 mM HEPES, pH 7.4, 140 mM NaCl, 4 mM KCl, 1 mM MgCl2, 1 mM CaCl2) at 27° C. for 30 min in each transporter assay. The cells were then pelleted and washed three times before they were solublized in 1N NaOH and the tritium content determined by liquid scintillation counting. […] Furthermore, the HACT activity was sensitive to 10 nM of Hemicholinium-3, which is characteristic of high affinity choline transporter. See e.g. Okuda et al. Nat. Neurosci. 3:120-5 (2000).
compound,measurement,setting,value
C[N+]1(C)CCOC(O)(c2ccc(-c3ccc(C4(O)C[N+](C)(C)CCO4)cc3)cc2)C1.[Br-].[Br-] (centres unmarked) [hemicholinium-3],sensitivity of the low affinity uptake system to hemicholinium-3,[1],insensitive
same,sensitivity of HACT activity to Hemicholinium-3,human HACT,sensitive
